This test addresses Protein farnesyltransferase (Homo sapiens, UniProt P49354+P49356). The test is described as follows: Inhibition of Protein farnesyltransferase (FPT). Type of test: protein-complex assay. To be noted: read-out: I50.
For the molecule `CC(C)C[C@H](NC(=O)[C@@H](NC(=O)c1ccc(OCc2ccccc2)cc1)C(C)C)C(=O)N[C@@H](CO)C(=O)O`, the IC50 is 166 µM.

In the case of `CC(C)C[C@H](NC(=O)[C@@H](NC(=O)c1cccc(O)c1OCc1ccccc1)C(C)C)C(=O)N[C@@H](CO)C(=O)O`, the IC50 stood at 157 µM. As to `CC(C)C[C@H](NC(=O)[C@@H](NC(=O)c1cccc(OCc2ccccc2)c1O)C(C)C)C(=O)N[C@@H](CO)C(=O)O`, the IC50 was above 360 µM. As for `CC(C)C[C@H](NC(=O)[C@@H](NC(=O)c1ccc(O)cc1)C(C)C)C(=O)N[C@@H](CO)C(=O)O`, the figure is above 360 µM; as for `CC(C)C[C@H](NC(=O)[C@@H](NC(=O)CCS)C(C)C)C(=O)N[C@@H](CO)C(=O)O`, 1 µM; as for `CC(C)C[C@H](NC(=O)[C@@H](NC(=O)c1cccc(OCc2ccccc2)c1)C(C)C)C(=O)N[C@@H](CO)C(=O)O`, above 360 µM. With `CC(C)C[C@H](NC(=O)[C@@H](NC(=O)c1cc(O)ccc1OCc1ccccc1)C(C)C)C(=O)N[C@@H](CO)C(=O)O`, the IC50 worked out at 137 µM. In the case of `CC(C)C[C@H](NC(=O)[C@@H](NC(=O)c1cccc(O)c1)C(C)C)C(=O)N[C@@H](CO)C(=O)O`, the IC50 was determined as 29 µM. As for `CC(C)C[C@H](NC(=O)[C@@H](NC(=O)[C@@H](N)CO)C(C)C)C(=O)N[C@@H](CO)C(=O)O`, the figure is above 360 µM.

For `CC(C)C[C@H](NC(=O)[C@@H](NC(=O)c1ccccc1OCc1ccccc1)C(C)C)C(=O)N[C@@H](CO)C(=O)O`, the IC50 is 63 µM. Consider `CC(C)C[C@H](NC(=O)[C@@H](NC(=O)c1ccccc1O)C(C)C)C(=O)N[C@@H](CO)C(=O)O`, for which the IC50 is above 360 µM.
